What is called IC50 is the point on the concentration scale where inhibition reaches its midpoint.

Experimental findings from patent US20250382305A1 (PTC THERAPEUTICS, INC., priority 2022, published 2025) are described below.

Where only a bound is given, the exact number is not on record here.

The test system of one assay is ATXN3 pre-mRNA. In words: RT-qPCR Assay to Quantify Exon 4 Skipping in ATXN3 pre-mRNA in Cells. It counts as cell-based. Conditions: percent exon 4 skipping in ATXN3 pre-mRNA, RT-qPCR of cell lysates; average IC50. A digest of the protocol: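 Cells plated at 10,000/well onto a 7-point, 3.16-fold DMSO dilution series (duplicates), incubated 24 h at 37 °C, then lysed. Exon 4 skipping measured by one-step RT-qPCR (48 °C RT, 40 cycles); IC50 interpolated from dose-response fit of percent skipping.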
Background: In qPCR the cycle at which signal appears reflects the starting amount.

In assay [1] the test system is Total ATXN3 (tATXN3) protein. Put plainly: Endogenous Total ATXN3 (tATXN3) Protein Assay (MSD immunoassay of cell lysates). Particulars: average IC50, total ATXN3 protein in cell lysate after 48 h with compound (Table 1). In kind it is cell-based. A digest of the protocol: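 Cells in DMEM/10% FBS were plated at 10,000 per well onto 7-point, 3.16-fold compound dilutions in duplicate for 48 h at 37° C, then lysed. Total ATXN3 in lysates was measured by MSD sandwich immunoassay: mouse anti-ATXN3 capture, rabbit anti-ATXN3 detection, SULFO-TAG anti-rabbit. Average IC50 was reported in star bins.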

On to `C/C=C/CNc1cc(Cl)nc2c(C)c([C@H]3CC=CC[C@@H]3N)sc12` [Compound 378, 2-((1S,6S)-6-aminocyclohex-3-en-1-yl)-N-((E)-but-2-en-1-yl)-5-chloro-3-methylthieno[3,2-b]pyridin-7-amine], for which the IC50 (with ATXN3 pre-mRNA; in assay [1]) was 30 to 300 nM in each case.
In the case of `N[C@H]1CCCC[C@]1(F)c1sc2c(NCc3ccco3)cc(Cl)nc2c1Cl` [Compound 38, 2-((1R,2S)-2-amino-1-fluorocyclohexyl)-3,5-dichloro-N-(furan-2-ylmethyl)thieno[3,2-b]pyridin-7-amine], the IC50 (in the assay on ATXN3 pre-mRNA; in assay [1]) was 30 to 300 nM throughout.
On to `CC#CCNc1cc(Cl)nc2c(Cl)c([C@H]3CCCC[C@@H]3N)sc12` [Compound 308, 2-((1S,2S)-2-aminocyclohexyl)-N-(but-2-yn-1-yl)-3,5-dichlorothieno[3,2-b]pyridin-7-amine], for which the IC50 (in the assay on ATXN3 pre-mRNA; in assay [1]) was 30 to 300 nM each time.
In the case of `N[C@H]1CC=CC[C@@H]1c1c(Cl)c2nc(Cl)cc(NCc3ccccc3)c2n1C(F)F` [Compound 420, 2-((1S,6S)-6-aminocyclohex-3-en-1-yl)-N-benzyl-3,5-dichloro-1-(difluoromethyl)-1H-pyrrolo[3,2-b]pyridin-7-amine], the IC50 (with ATXN3 pre-mRNA; in assay [1]) was 30 to 300 nM in each case.
On to `Cc1c([C@H]2CC=C(C(=O)O)C[C@@H]2N)sc2c(NCc3cccs3)cc(Cl)nc12` [Compound 446, (4S,5S)-5-amino-4-(5-chloro-3-methyl-7-((thiophen-2-ylmethyl)amino)thieno[3,2-b]pyridin-2-yl)cyclohex-1-ene-1-carboxylic acid], for which the IC50 (in the assay with ATXN3 pre-mRNA; in assay [1]) was at most 30 nM each time.
`N[C@H]1CCCO[C@@H]1c1c(Cl)c2nc(Cl)cc(NCc3cccs3)c2n1C(F)F` [Compound 262, 2-((2S,3S)-3-aminotetrahydro-2H-pyran-2-yl)-3,5-dichloro-1-(difluoromethyl)-N-(thiophen-2-ylmethyl)-1H-pyrrolo[3,2-b]pyridin-7-amine]: the IC50 (with ATXN3 pre-mRNA; in assay [1]) was 30 to 300 nM each time.
Regarding `[2H]C1=C([2H])C([2H])([2H])[C@@H](c2sc3c(NCc4ccco4)cc(Cl)nc3c2Cl)[C@H](N)C1([2H])[2H]` [Compound 369, 2-((1R,6R)-6-aminocyclohex-3-en-1-yl-2,2,3,4,5,5-d6)-3,5-dichloro-N-(furan-2-ylmethyl)thieno[3,2-b]pyridin-7-amine], the IC50 (in the assay with ATXN3 pre-mRNA; in assay [1]) was 30 to 300 nM each time.
For `N[C@H]1CCCCC[C@H]1c1cc2nc(Cl)cc(NCc3cccs3)c2s1` [Compound 89, 2-((1R,2S)-2-aminocycloheptyl)-5-chloro-N-(thiophen-2-ylmethyl)thieno[3,2-b]pyridin-7-amine], the IC50 (with ATXN3 pre-mRNA; in assay [1]) was over 1000 nM in each case.
Consider `Cc1c([C@H]2COCC[C@@H]2N)sc2c(NCc3cccs3)cc(Cl)nc12` [Compound 232, 2-((3R,4S)-4-aminotetrahydro-2H-pyran-3-yl)-5-chloro-3-methyl-N-(thiophen-2-ylmethyl)thieno[3,2-b]pyridin-7-amine], for which the IC50 (with ATXN3 pre-mRNA; in assay [1]) was at most 30 nM in each case.
As for `N#Cc1cc(NCc2ccco2)c2sc([C@H]3CC=CC[C@@H]3N)c(Cl)c2n1` [Compound 242, 2-((1S,6S)-6-aminocyclohex-3-en-1-yl)-3-chloro-7-((furan-2-ylmethyl)amino)thieno[3,2-b]pyridine-5-carbonitrile], the IC50 (in the assay on ATXN3 pre-mRNA; in assay [1]) was at most 30 nM in each case.
On to “2-((1R,2R)-2-aminocyclohexyl)-5-chloro-3-methyl-N-(thiophen-2-ylmethyl)thieno[3,2-b]pyridin-7-amine or 2-((1S,2S)-2-aminocyclohexyl)-5-chloro-3-methyl-N-(thiophen-2-ylmethyl)thieno[3,2-b]pyridine-7-amine [Compound 35]”, for which the IC50 (with ATXN3 pre-mRNA; in assay [1]) was 300 to 1000 nM each time.
With `C#Cc1c([C@@H]2CCOC[C@H]2N)sc2c(NCc3ccco3)nc(Cl)nc12.C#Cc1c([C@H]2CCOC[C@@H]2N)sc2c(NCc3ccco3)nc(Cl)nc12` (mixture of isomers) [Compound 330, 6-((3R,4S)-3-aminotetrahydro-2H-pyran-4-yl)-2-chloro-7-ethynyl-N-(furan-2-ylmethyl)thieno[3,2-d]pyrimidin-4-amine and 6-((3S,4R)-3-aminotetrahydro-2H-pyran-4-yl)-2-chloro-7-ethynyl-N-(furan-2-ylmethyl)thieno[3,2-d]pyrimidin-4-amine], the IC50 (with ATXN3 pre-mRNA; in assay [1]) was 30 to 300 nM each time.
For `Cc1c([C@@]2(F)CCC[C@@H]2N)sc2c(NCc3ccco3)nc(Cl)nc12` [Compound 128, 6-((1R,2S)-2-amino-1-fluorocyclopentyl)-2-chloro-N-(furan-2-ylmethyl)-7-methylthieno[3,2-d]pyrimidin-4-amine], the IC50 (in the assay on ATXN3 pre-mRNA; in assay [1]) was over 1000 nM each time.
Turning to “2-((1R,2R)-2-aminocyclohexyl)-N-benzyl-5-chloro-3-iodothieno[3,2-b]pyridin-7-amine and 2-((1S,2S)-2-aminocyclohexyl)-N-benzyl-5-chloro-3-iodothieno[3,2-b]pyridin-7-amine [Compound 295]”, the IC50 (in the assay on ATXN3 pre-mRNA; in assay [1]) was 30 to 300 nM throughout.
Turning to `N[C@@H]1CCCCCC[C@@H]1c1sc2c(NCc3cccs3)cc(Cl)nc2c1Br` [Compound 101, 2-((1S,2R)-2-aminocyclooctyl)-3-bromo-5-chloro-N-(thiophen-2-ylmethyl)thieno[3,2-b]pyridin-7-amine], the IC50 (with ATXN3 pre-mRNA; in assay [1]) was over 1000 nM in each case.
Regarding `N[C@H]1CC=CC[C@@H]1c1sc2c(NCc3ccccc3)cc(Cl)nc2c1I` [Compound 190, 2-((1S,6S)-6-aminocyclohex-3-en-1-yl)-N-benzyl-5-chloro-3-iodothieno[3,2-b]pyridin-7-amine], the IC50 (in the assay with ATXN3 pre-mRNA; in assay [1]) was at most 30 nM throughout.
Take `Cc1c([C@@H]2[C@@H](N)CCCC2(F)F)sc2c(NCc3cccs3)cc(Cl)nc12` [Compound 338, 2-((1R,6S)-6-amino-2,2-difluorocyclohexyl)-5-chloro-3-methyl-N-(thiophen-2-ylmethyl)thieno[3,2-b]pyridin-7-amine]: the IC50 (with ATXN3 pre-mRNA; in assay [1]) was 30 to 300 nM each time.
Regarding `N[C@@H]1CCCCC[C@@H]1c1sc2c(NCc3cccs3)cc(Cl)nc2c1Br` [Compound 72, 2-((1S,2R)-2-aminocycloheptyl)-3-bromo-5-chloro-N-(thiophen-2-ylmethyl)thieno[3,2-b]pyridin-7-amine], the IC50 (in the assay on ATXN3 pre-mRNA; in assay [1]) was over 1000 nM each time.
`N[C@@H]1CC=CC[C@H]1c1sc2c(NCc3ccco3)cc(Cl)nc2c1Cl` [Compound 299, 2-((1R,6R)-6-aminocyclohex-3-en-1-yl)-3,5-dichloro-N-(furan-2-ylmethyl)thieno[3,2-b]pyridin-7-amine]: the IC50 (with ATXN3 pre-mRNA; in assay [1]) was 30 to 300 nM throughout.
`Cc1c([C@H]2CCCC[C@@H]2N)sc2c(NCc3ccco3)cc(Cl)nc12` [Compound 231, 2-((1S,2S)-2-aminocyclohexyl)-5-chloro-N-(furan-2-ylmethyl)-3-methylthieno[3,2-b]pyridin-7-amine]: the IC50 (with ATXN3 pre-mRNA; in assay [1]) was at most 30 nM in each case.
Turning to `Cc1c([C@H]2CCCCC[C@H]2N)sc2c(NCc3cccs3)cc(Cl)nc12` [Compound 84, 2-((1S,2R)-2-aminocycloheptyl)-5-chloro-3-methyl-N-(thiophen-2-ylmethyl)thieno[3,2-b]pyridin-7-amine], the IC50 (in the assay on ATXN3 pre-mRNA; in assay [1]) was over 1000 nM each time.
On to `N[C@@H]1CC=CC[C@H]1c1sc2c(NCc3ccco3)nc(Cl)nc2c1Cl` [Compound 437, 6-((1R,6R)-6-aminocyclohex-3-en-1-yl)-2,7-dichloro-N-(furan-2-ylmethyl)thieno[3,2-d]pyrimidin-4-amine], for which the IC50 (in the assay with ATXN3 pre-mRNA; in assay [1]) was at most 30 nM throughout.
Regarding `Cc1c([C@H]2CCC[C@@H]2N)sc2c(NCc3ccco3)cc(Cl)nc12` [Compound 120, 2-((1S,2S)-2-aminocyclopentyl)-5-chloro-N-(furan-2-ylmethyl)-3-methylthieno[3,2-b]pyridin-7-amine], the IC50 (in the assay on ATXN3 pre-mRNA; in assay [1]) was 30 to 300 nM in each case.
As for `N[C@@H]1COCC[C@H]1c1sc2c(NCc3ccco3)cc(Cl)nc2c1Cl` [Compound 410, 2-((3S,4R)-3-aminotetrahydro-2H-pyran-4-yl)-3,5-dichloro-N-(furan-2-ylmethyl)thieno[3,2-b]pyridin-7-amine], the IC50 (in the assay with ATXN3 pre-mRNA; in assay [1]) was 30 to 300 nM each time.
On to `N[C@@H]1CCC[C@@H]1c1cc2nc(Cl)cc(NCc3cccs3)c2s1` [Compound 9, 2-((1S,2R)-2-aminocyclopentyl)-5-chloro-N-(thiophen-2-ylmethyl)thieno[3,2-b]pyridin-7-amine], for which the IC50 in the assay with ATXN3 pre-mRNA was 300 to 1000 nM; in assay [1], over 1000 nM.
With “3-bromo-5-chloro-2-((1R,2R)-2-(methylamino)cyclohexyl)-N-(thiophen-2-ylmethyl)thieno[3,2-b]pyridin-7-amine and 3-bromo-5-chloro-2-((1S,2S)-2-(methylamino)cyclohexyl)-N-(thiophen-2-ylmethyl)thieno[3,2-b]pyridin-7-amine [Compound 375]”, the IC50 (in the assay on ATXN3 pre-mRNA; in assay [1]) was 30 to 300 nM in each case.
